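96-well plates; 48 h exposure; 5 concentrations. Endpoints by linear interpolation between flanking doses. Not reached: highest tested concentration assigned. At the GI50, growth is halved.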 Calls of active or inactive are those of the source. Rule as the data show it: active = GI50 up to about 1.1 µM and inactive = higher.
Assays:
Experiment in all cases: DTP human tumour cell line panel, 48 h
786-0 = system: 786-0
COLO 205 = system: COLO 205
HCC 2998 = system: HCC 2998
HCT-15 = system: HCT-15
K562 = system: K562
M14 = system: M14
NCI-H460 = system: NCI-H460
NCI-H522 = system: NCI-H522
SK-MEL-5 = system: SK-MEL-5
UACC-257 = system: UACC-257
UACC-62 = system: UACC-62
OVCAR-3 = system: OVCAR-3
SK-MEL-28 = system: SK-MEL-28
SK-OV-3 = system: SK-OV-3
SR = system: SR
TK-10 = system: TK-10
LOX IMVI = system: LOX IMVI
RPMI-8226 = system: RPMI-8226

Row | SMILES | GI50 (786-0) | GI50 (COLO 205) | GI50 (HCC 2998) | GI50 (HCT-15) [µM] | GI50 (K562) | GI50 (M14) | GI50 (NCI-H460) | GI50 (NCI-H522) | GI50 (SK-MEL-5) | GI50 (UACC-257) | GI50 (UACC-62) | GI50 (OVCAR-3) | GI50 (SK-MEL-28) | GI50 (SK-OV-3) | GI50 (SR) | GI50 (TK-10) | GI50 (LOX IMVI) | GI50 (RPMI-8226)
1 | COc1ccc(/C(=N/Nc2ccccc2)C(c2ccc(OC)cc2)C2OC(=O)c3ccccc32)cc1 (stereo unspecified) | > 100 µM (inactive) | > 100 µM (inactive) | > 100 µM (inactive) | > 100 | 31.8 µM (inactive) | > 100 µM (inactive) | 95.7 µM (inactive) | 70.5 µM (inactive) | 33.2 µM (inactive) | 76 µM (inactive) | 52.7 µM (inactive) | – | – | – | – | – | – | –
2 | CN(C)c1ccc(/C=C(\NC(=O)c2ccccc2)c2nc3cncnc3[nH]2)cc1 | > 100 µM (inactive) | > 100 µM (inactive) | > 100 µM (inactive) | > 100 | > 100 µM (inactive) | > 100 µM (inactive) | – | > 100 µM (inactive) | > 100 µM (inactive) | – | > 100 µM (inactive) | > 100 µM (inactive) | > 100 µM (inactive) | > 100 µM (inactive) | > 100 µM (inactive) | > 100 µM (inactive) | – | –
3 | CC(=O)Nc1c(C)ccc2c1C(=O)c1ccccc1C2=O | > 100 µM (inactive) | > 100 µM (inactive) | > 100 µM (inactive) | > 100 | > 100 µM (inactive) | > 100 µM (inactive) | > 100 µM (inactive) | > 100 µM (inactive) | > 100 µM (inactive) | > 100 µM (inactive) | > 100 µM (inactive) | – | – | > 100 µM (inactive) | > 100 µM (inactive) | > 100 µM (inactive) | 79.3 µM (inactive) | 65.8 µM (inactive)
4 | S=C1NC(c2ccccc2)=NC(Cc2ccccc2)(c2ccccc2)N1c1ccccc1 (stereo unspecified) | > 100 µM (inactive) | > 100 µM (inactive) | > 100 µM (inactive) | > 100 | > 100 µM (inactive) | > 100 µM (inactive) | > 100 µM (inactive) | – | > 100 µM (inactive) | > 100 µM (inactive) | > 100 µM (inactive) | > 100 µM (inactive) | > 100 µM (inactive) | – | > 100 µM (inactive) | > 100 µM (inactive) | 96.6 µM (inactive) | > 100 µM (inactive)
5 | N=C(N)Nc1nc2cc(N)ccc2o1 | > 100 µM (inactive) | – | > 100 µM (inactive) | > 100 | > 100 µM (inactive) | > 100 µM (inactive) | > 100 µM (inactive) | > 100 µM (inactive) | – | > 100 µM (inactive) | > 100 µM (inactive) | – | > 100 µM (inactive) | > 100 µM (inactive) | > 100 µM (inactive) | > 100 µM (inactive) | > 100 µM (inactive) | –
6 | CCCN1CN(C(C(=O)N[C@@H]2C(=O)N3C(C(=O)O)=C(C)CSC23)c2ccc(O)cc2)CSC1=S (stereo partly specified) | > 100 µM (inactive) | 55.6 µM (inactive) | – | > 100 | 80 µM (inactive) | > 100 µM (inactive) | 63.1 µM (inactive) | 23.6 µM (inactive) | > 100 µM (inactive) | > 100 µM (inactive) | > 100 µM (inactive) | 45.5 µM (inactive) | > 100 µM (inactive) | > 100 µM (inactive) | – | > 100 µM (inactive) | 76.6 µM (inactive) | 72.1 µM (inactive)
7 | CCc1ccccc1NC(=O)C(=O)C(C#N)c1ccccc1Cl (stereo unspecified) | > 100 µM (inactive) | > 100 µM (inactive) | > 100 µM (inactive) | – | – | > 100 µM (inactive) | 16.9 µM (inactive) | – | > 100 µM (inactive) | > 100 µM (inactive) | > 100 µM (inactive) | > 100 µM (inactive) | > 100 µM (inactive) | – | – | 2.55 µM (inactive) | 3.36 µM (inactive) | > 100 µM (inactive)
8 | COc1c(CC(=O)c2ccccc2)c2ccccc2n1C(C)=O | 29.9 µM (inactive) | > 100 µM (inactive) | > 100 µM (inactive) | > 100 | > 100 µM (inactive) | > 100 µM (inactive) | > 100 µM (inactive) | – | – | > 100 µM (inactive) | > 100 µM (inactive) | > 100 µM (inactive) | > 100 µM (inactive) | > 100 µM (inactive) | > 100 µM (inactive) | – | – | > 100 µM (inactive)
9 | COc1ccc2nc(NC(=O)C(=O)C(C#N)c3ccc(CC#N)cc3)sc2c1 (stereo unspecified) | > 100 µM (inactive) | > 100 µM (inactive) | > 100 µM (inactive) | > 100 | > 100 µM (inactive) | > 100 µM (inactive) | > 100 µM (inactive) | > 100 µM (inactive) | > 100 µM (inactive) | > 100 µM (inactive) | 92.9 µM (inactive) | > 100 µM (inactive) | > 100 µM (inactive) | > 100 µM (inactive) | – | > 100 µM (inactive) | > 100 µM (inactive) | > 100 µM (inactive)

Source: ChEMBL document CHEMBL1201862, “PubChem BioAssay data set” (2004)
